From US10611740B2, “Aryl dihydro-2H-benzo[b][1,4]oxazine sulfonamide and related compounds for use as agonists of RORγ and the treatment of disease” (Lycera Corporation, priority 2015, dated 2020)

Assays:
RORγ-LBD = target: T1, RORγ-LBD (Homo sapiens, UniProt P51449); assay: RORγ-Ligand Binding Domain (LBD) TR-FRET Assay; assay type: biochemical;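 for TR-FRET Assay Max Response: 665/615 nm ratio relative to signal without ursolic acid or compound set at 100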
T1 construct: made in house; host or cells: SF9 cells (baculovirus)
T1 sequence (P51449 269-508 limits assumed): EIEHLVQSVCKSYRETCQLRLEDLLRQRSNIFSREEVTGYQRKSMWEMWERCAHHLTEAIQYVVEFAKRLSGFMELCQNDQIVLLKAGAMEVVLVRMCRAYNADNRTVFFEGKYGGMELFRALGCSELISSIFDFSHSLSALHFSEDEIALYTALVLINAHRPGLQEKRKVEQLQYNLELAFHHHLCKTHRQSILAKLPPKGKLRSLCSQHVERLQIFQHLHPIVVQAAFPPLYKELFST
Summary of the method: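 This TR-FRET coactivator assay pairs baculovirus-expressed His-RORγ-LBD (~3 nM final) with biotin-SRC1 LXXLL peptide at 200 nM final in pH 7.0 Tris/KCl/EDTA/DTT/BSA buffer.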

Gal4-RORγ-LBD = target: T2, Gal4-RORγ-LBD (Homo sapiens, UniProt P51449); assay: Gal4-RORγ Luciferase Reporter Assay in HEK-293T Cells; assay type: cell-based; conditions: HEK-293 cells, 2 μM ursolic acid
T2 construct: expressed in transfected cells; host or cells: HEK-293 cells (pcDNA3.1neo plasmid)
T2 sequence (P51449 269-508 limits assumed): T1 sequence (P51449 269-508 limits assumed)
Summary of the method: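 Luminescence read-out (One-Glo, 10 min RT) after overnight compound exposure at 37 °C in HEK-293 cells carrying Gal4-RORγ-LBD plus a Gal4-luciferase reporter, in the presence of 2 μM ursolic acid. Max Response is the upper plateau from a 4-parameter logistic fit, normalized to untreated signal = 100.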

Compound | EC50 (RORγ-LBD) [nM] | TR-FRET Assay Max Response (RORγ-LBD) | EC50 (Gal4-RORγ-LBD) [nM] | Gal4-RORγ Assay Max Response (Gal4-RORγ-LBD)
O=C(O)C1(C[C@H]2CN(S(=O)(=O)c3cccc(C4CC4)c3)c3cc(-c4cc(F)cc(OC(F)F)c4)ccc3O2)COC1 [Compound 51F, (S)-3-((4-((3-cyclopropyl-phenyl)sulfonyl)-6-(3-(difluoro-methoxy)-5-fluorophenyl)-3,4-dihydro-2H-benzo[b][1,4]oxazin-2-yl)methyl)oxetane-3-carboxylic acid] | < 500 | *** (The symbol “***” indicates a value in the range of greater than 150 to 200) | < 500 | ** (The symbol “**” indicates a value in the range of greater than 90 to 150)
CC(=O)NC1(C[C@H]2CN(S(=O)(=O)c3cccc(C(F)(F)F)c3)c3cc(-c4cccc(C(F)(F)F)n4)ccc3O2)COC1 [Compound 51M, (S)-N-(3-((4-((3-(trifluoromethyl)-phenyl)sulfonyl)-6-(6-(trifluoromethyl)pyridin-2-yl)-3,4-dihydro-2H-benzo[b][1,4]oxazin-2-yl)methyl)oxetan-3-yl)acetamide] | < 500 | *** (The symbol “***” indicates a value in the range of greater than 150 to 200) | < 500 | ** (The symbol “**” indicates a value in the range of greater than 90 to 150)
CC(C)(C[C@@H]1CN(S(=O)(=O)c2cccc(C(F)(F)F)c2)c2cc(-c3cc(F)ccc3F)ccc2O1)C(=O)O [Compound 52, (R)-3-(6-(2,5-difluorophenyl)-4-((3-(trifluoromethyl)phenyl)sulfonyl)-3,4-dihydro-2H-benzo[b][1,4]oxazin-2-yl)-2,2-dimethylpropanoic Acid] | < 500 | ** (The symbol “**” indicates a value in the range of greater than 90 to 150) | 500 to 5000 | * (The symbol “*” indicates a value in the range of 25 to 90)
O=C(O)[C@@H]1C[C@H]1[C@H]1CN(S(=O)(=O)c2cccc(C(F)(F)F)c2)c2cc(-c3cc(F)ccc3F)ccc2O1 [Compound 53, (1R,2R)-2-((S)-6-(2,5-difluorophenyl)-4-((3-(trifluoromethyl)phenyl)sulfonyl)-3,4-dihydro-2H-benzo[b][1,4]oxazin-2-yl)cyclopropane-1-carboxylic acid] | < 500 | ** (The symbol “**” indicates a value in the range of greater than 90 to 150) | < 500 | ** (The symbol “**” indicates a value in the range of greater than 90 to 150)
O=C(O)[C@H]1C[C@@H]1[C@H]1CN(S(=O)(=O)c2cccc(C(F)(F)F)c2)c2cc(-c3cc(F)ccc3F)ccc2O1 [Compound 54, (1S,2S)-2-((S)-6-(2,5-difluorophenyl)-4-((3-(trifluoromethyl)phenyl)sulfonyl)-3,4-dihydro-2H-benzo[b][1,4]oxazin-2-yl)cyclopropane-1-carboxylic acid] | < 500 | ** (The symbol “**” indicates a value in the range of greater than 90 to 150) | 500 to 5000 | ** (The symbol “**” indicates a value in the range of greater than 90 to 150)
O=C(O)[C@@H]1C[C@H]1[C@H]1CN(S(=O)(=O)c2cccc(C(F)(F)F)c2)c2cc(-c3cc(F)cc(OC(F)F)c3)ccc2O1 [Compound 55, (1R,2R)-2-((S)-6-(3-(difluoromethoxy)-5-fluorophenyl)-4-((3-(trifluoromethyl)phenyl)sulfonyl)-3,4-dihydro-2H-benzo[b][1,4]oxazin-2-yl)cyclopropane-1-carboxylic acid] | < 500 | ** (The symbol “**” indicates a value in the range of greater than 90 to 150) | < 500 | * (The symbol “*” indicates a value in the range of 25 to 90)
O=C(O)[C@H]1C[C@@H]1[C@H]1CN(S(=O)(=O)c2cccc(C(F)(F)F)c2)c2cc(-c3cc(F)cc(OC(F)F)c3)ccc2O1 [Compound 56, (1S,2S)-2-((S)-6-(3-(difluoromethoxy)-5-fluorophenyl)-4-((3-(trifluoromethyl)phenyl)sulfonyl)-3,4-dihydro-2H-benzo[b][1,4]oxazin-2-yl)cyclopropane-1-carboxylic acid] | < 500 | ** (The symbol “**” indicates a value in the range of greater than 90 to 150) | 500 to 5000 | ** (The symbol “**” indicates a value in the range of greater than 90 to 150)
O=C(O)C1(C[C@H]2CN(S(=O)(=O)c3cccc(C(F)(F)F)c3)c3cc(-c4cc(F)cc(OC(F)F)c4)ccc3O2)CCOCC1 [Compound 58, (S)-4-((6-(3-(difluoromethoxy)-5-fluorophenyl)-4-((3-(trifluoromethyl)phenyl)sulfonyl)-3,4-dihydro-2H-benzo[b][1,4]oxazin-2-yl)methyl)tetrahydro-2H-pyran-4-carboxylic acid] | < 500 | *** (The symbol “***” indicates a value in the range of greater than 150 to 200) | < 500 | ** (The symbol “**” indicates a value in the range of greater than 90 to 150)
O=C(O)[C@H]1C[C@H](C[C@H]2CN(S(=O)(=O)c3cccc(C(F)(F)F)c3)c3cc(-c4cc(F)cc(OC(F)F)c4)ccc3O2)C1 [Compound 59, (1S,3r)-3-(((S)-6-(3-(difluoromethoxy)-5-fluorophenyl)-4-((3-(trifluoromethyl)phenyl)sulfonyl)-3,4-dihydro-2H-benzo[b][1,4]oxazin-2-yl)methyl)cyclobutane-1-carboxylic acid] | < 500 | *** (The symbol “***” indicates a value in the range of greater than 150 to 200) | < 500 | ** (The symbol “**” indicates a value in the range of greater than 90 to 150)
O=C(O)[C@H]1C[C@H](C[C@H]2CN(S(=O)(=O)c3cccc(C(F)(F)F)c3)c3cc(-c4cc(F)ccc4F)ccc3O2)C1 [Compound 60A, (1S,3r)-3-(((S)-6-(2,5-difluoro-phenyl)-4-((3-(trifluoromethyl)-phenyl)sulfonyl)-3,4-dihydro-2H-benzo[b][1,4]oxazin-2-yl)methyl)cyclobutane-1-carboxylic acid] | < 500 | *** (The symbol “***” indicates a value in the range of greater than 150 to 200) | < 500 | ** (The symbol “**” indicates a value in the range of greater than 90 to 150)
O=C(O)[C@H]1C[C@H](C[C@H]2CN(S(=O)(=O)c3cccc(C(F)(F)F)c3)c3cc(-c4cc(F)cc(F)c4Cl)ccc3O2)C1 [Compound 60B, (1S,3r)-3-(((S)-6-(2-chloro-3,5-difluorophenyl)-4-((3-(trifluoro-methyl)phenyl)sulfonyl)-3,4-dihydro-2H-benzo[b][1,4]oxazin-2-yl)methyl)cyclobutane-1-carboxylic acid] | < 500 | *** (The symbol “***” indicates a value in the range of greater than 150 to 200) | < 500 | ** (The symbol “**” indicates a value in the range of greater than 90 to 150)
O=C(O)[C@H]1C[C@H](C[C@H]2CN(S(=O)(=O)c3cccc(C(F)(F)F)c3)c3cc(-c4cccc(C(F)(F)F)n4)ccc3O2)C1 [Compound 60C, (1S,3r)-3-(((S)-4-((3-(trifluoro-methyl)phenyl)sulfonyl)-6-(6-(trifluoromethyl)pyridin-2-yl)-3,4-dihydro-2H-benzo[b][1,4]-oxazin-2-yl)methyl)cyclobutane-1-carboxylic acid] | < 500 | ** (The symbol “**” indicates a value in the range of greater than 90 to 150) | < 500 | ** (The symbol “**” indicates a value in the range of greater than 90 to 150)
CC(=O)N[C@H]1C[C@H](C[C@H]2CN(S(=O)(=O)c3cccc(C(F)(F)F)c3)c3cc(-c4cc(F)cc(OC(F)F)c4)ccc3O2)C1 [Compound 60D, N-((1S,3r)-3-(((S)-6-(3-(difluoro-methoxy)-5-fluoro-phenyl)-4-((3-(trifluoro-methyl)-phenyl)sulfonyl)-3,4-dihydro-2H-benzo[b][1,4]-oxazin-2-yl)methyl)cyclo-butyl)-acetamide] | < 500 | *** (The symbol “***” indicates a value in the range of greater than 150 to 200) | < 500 | * (The symbol “*” indicates a value in the range of 25 to 90)
CC(=O)N[C@H]1C[C@H](C[C@H]2CN(S(=O)(=O)c3cccc(C(F)(F)F)c3)c3cc(-c4cc(F)ccc4F)ccc3O2)C1 [Compound 60E, N-((1S,3r)-3-(((S)-6-(2,5-difluorophenyl)-4-((3-(trifluoro-methyl)phenyl)sulfonyl)-3,4-dihydro-2H-benzo[b][1,4]oxazin-2-yl)methyl)cyclobutyl)-acetamide] | < 500 | *** (The symbol “***” indicates a value in the range of greater than 150 to 200) | < 500 | ** (The symbol “**” indicates a value in the range of greater than 90 to 150)
